Test results taken from BigSolDB 2.1.

SMILES: O=C1CCC(=O)O1
- solubility (mole fraction) (in acetone, 278.15 K): 0.0721
- solubility (mole fraction) (in acetone, 283.15 K): 0.0863
- solubility (mole fraction) (in acetone, 288.15 K): 0.103
- solubility (mole fraction) (in acetone, 293.15 K): 0.121
- solubility (mole fraction) (in acetone, 298.15 K): 0.143
- solubility (mole fraction) (in acetone, 303.15 K): 0.166
- solubility (mole fraction) (in acetonitrile, 278.15 K): 0.114
- solubility (mole fraction) (in acetonitrile, 283.15 K): 0.121
- solubility (mole fraction) (in acetonitrile, 288.15 K): 0.129
- solubility (mole fraction) (in acetonitrile, 293.15 K): 0.137
- solubility (mole fraction) (in acetonitrile, 298.15 K): 0.146
- solubility (mole fraction) (in acetonitrile, 303.15 K): 0.156
- solubility (mole fraction) (in ethyl acetate, 278.15 K): 0.0485
- solubility (mole fraction) (in ethyl acetate, 283.15 K): 0.0544
- solubility (mole fraction) (in ethyl acetate, 288.15 K): 0.0611
- solubility (mole fraction) (in ethyl acetate, 293.15 K): 0.0684
- solubility (mole fraction) (in ethyl acetate, 298.15 K): 0.0771
- solubility (mole fraction) (in ethyl acetate, 303.15 K): 0.0853
- solubility (mole fraction) (in isopropanol, 278.15 K): 0.0502
- solubility (mole fraction) (in isopropanol, 283.15 K): 0.0562
- solubility (mole fraction) (in isopropanol, 288.15 K): 0.0632
- solubility (mole fraction) (in isopropanol, 293.15 K): 0.0705
- solubility (mole fraction) (in isopropanol, 298.15 K): 0.0793
- solubility (mole fraction) (in isopropanol, 303.15 K): 0.0889
